Experimental data from the NIST ThermoML archive (doi:10.1016/j.jct.2005.10.004).
Where “and” joins values, the source holds several entries; their conditions need not be identical. Equal entries are not always repeated. Numbers after ± are expanded uncertainties.

Experiment: xn = mol fraction of the nth substance listed
Conditions: Gas, Buoyancy - hydrostatic balance with magnetic suspension - one sinker

N#N [nitrogen] + C
mass density (299.91 K, 7416.3 kPa, x2 = 0.8): 59.8697 ± 0.015 kg/m3 | mass density (299.91 K, 7417.6 kPa, x2 = 0.8): 59.8813 ± 0.015 kg/m3 | mass density (299.91 K, 9999.1 kPa, x2 = 0.8): 82.4744 ± 0.02 kg/m3 | mass density (299.91 K, 10000 kPa, x2 = 0.8): 82.4859 ± 0.02 kg/m3 | mass density (299.91 K, 10001 kPa, x2 = 0.8): 82.4925 ± 0.02 kg/m3 | mass density (299.91 K, 12313 kPa, x2 = 0.8): 102.883 ± 0.024 kg/m3 | mass density (299.91 K, 12314 kPa, x2 = 0.8): 102.89 ± 0.024 kg/m3 | mass density (299.91 K, 14412 kPa, x2 = 0.8): 121.138 ± 0.029 kg/m3 and 121.127 ± 0.029 kg/m3 | mass density (299.91 K, 16342 kPa, x2 = 0.8): 137.386 ± 0.032 kg/m3 | mass density (299.91 K, 16343 kPa, x2 = 0.8): 137.395 ± 0.032 kg/m3 | mass density (299.92 K, 2421.7 kPa, x2 = 0.8): 18.4741 ± 0.006 kg/m3 | mass density (299.92 K, 4995 kPa, x2 = 0.8): 39.3048 ± 0.0097 kg/m3 | mass density (299.92 K, 9109.5 kPa, x2 = 0.8): 74.6412 ± 0.018 kg/m3 | mass density (299.99 K, 13043 kPa, x2 = 0.8998): 105.072 ± 0.026 kg/m3 | mass density (299.99 K, 15058 kPa, x2 = 0.8998): 122.114 ± 0.03 kg/m3 and 122.112 ± 0.03 kg/m3 | mass density (299.99 K, 17101 kPa, x2 = 0.8998): 138.717 ± 0.033 kg/m3 and 138.72 ± 0.033 kg/m3 | mass density (299.99 K, 19357 kPa, x2 = 0.8998): 155.97 ± 0.038 kg/m3 | mass density (299.99 K, 19358 kPa, x2 = 0.8998): 155.975 ± 0.038 kg/m3 | mass density (300 K, 899.61 kPa, x2 = 0.8998): 6.30257 ± 0.0049 kg/m3 | mass density (300 K, 2023 kPa, x2 = 0.8998): 14.4126 ± 0.0056 kg/m3 | mass density (300 K, 2023.1 kPa, x2 = 0.8998): 14.4136 ± 0.0056 kg/m3 | mass density (300 K, 2766.3 kPa, x2 = 0.8998): 19.9248 ± 0.0062 kg/m3 | mass density (300 K, 4003.3 kPa, x2 = 0.8998): 29.3523 ± 0.0076 kg/m3 | mass density (300 K, 4948.9 kPa, x2 = 0.8998): 36.7656 ± 0.0091 kg/m3 | mass density (300 K, 5998.7 kPa, x2 = 0.8998): 45.1981 ± 0.011 kg/m3 | mass density (300 K, 5998.9 kPa, x2 = 0.8998): 45.2004 ± 0.011 kg/m3 | mass density (300 K, 6904.7 kPa, x2 = 0.8): 55.4385 ± 0.014 kg/m3 | mass density (300 K, 6954.3 kPa, x2 = 0.8998): 53.0353 ± 0.013 kg/m3 | mass density (300 K, 8009.1 kPa, x2 = 0.8998): 61.855 ± 0.015 kg/m3 | mass density (300 K, 8009.7 kPa, x2 = 0.8998): 61.8592 ± 0.015 kg/m3 | mass density (300 K, 9029.6 kPa, x2 = 0.8998): 70.5133 ± 0.017 kg/m3 and 70.5136 ± 0.017 kg/m3 | mass density (300 K, 9030 kPa, x2 = 0.8998): 70.5158 ± 0.017 kg/m3 | mass density (300 K, 10050 kPa, x2 = 0.8998): 79.2704 ± 0.019 kg/m3 | mass density (300 K, 11034 kPa, x2 = 0.8998): 87.7596 ± 0.021 kg/m3 | mass density (300 K, 12063 kPa, x2 = 0.8998): 96.6441 ± 0.023 kg/m3 | mass density (300 K, 12064 kPa, x2 = 0.8998): 96.6562 ± 0.023 kg/m3 | mass density (300 K, 12996 kPa, x2 = 0.8998): 104.673 ± 0.025 kg/m3 | mass density (300 K, 14010 kPa, x2 = 0.8998): 113.319 ± 0.027 kg/m3 | mass density (300 K, 14012 kPa, x2 = 0.8998): 113.335 ± 0.027 kg/m3 | mass density (300 K, 16021 kPa, x2 = 0.8998): 130.057 ± 0.031 kg/m3 | mass density (300 K, 16023 kPa, x2 = 0.8998): 130.071 ± 0.031 kg/m3 | mass density (300 K, 17936 kPa, x2 = 0.8998): 145.268 ± 0.034 kg/m3 | mass density (300 K, 17939 kPa, x2 = 0.8998): 145.292 ± 0.034 kg/m3 | mass density (300 K, 20071 kPa, x2 = 0.8998): 161.173 ± 0.038 kg/m3 | mass density (300 K, 20074 kPa, x2 = 0.8998): 161.19 ± 0.038 kg/m3 | mass density (300.01 K, 19196 kPa, x2 = 0.8): 160.005 ± 0.037 kg/m3 | mass density (349.98 K, 2438.8 kPa, x2 = 0.8): 15.6874 ± 0.0057 kg/m3 | mass density (349.98 K, 4939.5 kPa, x2 = 0.8): 32.1898 ± 0.0082 kg/m3 | mass density (349.98 K, 17023 kPa, x2 = 0.8): 112.695 ± 0.028 kg/m3 | mass density (349.99 K, 2438.9 kPa, x2 = 0.8): 15.6871 ± 0.0057 kg/m3 | mass density (349.99 K, 4939.9 kPa, x2 = 0.8): 32.193 ± 0.0082 kg/m3 | mass density (349.99 K, 7493.5 kPa, x2 = 0.8): 49.3399 ± 0.012 kg/m3 | mass density (349.99 K, 7494.4 kPa, x2 = 0.8): 49.3451 ± 0.012 kg/m3 | mass density (349.99 K, 8821.7 kPa, x2 = 0.8): 58.3187 ± 0.015 kg/m3 | mass density (349.99 K, 8822.8 kPa, x2 = 0.8): 58.3243 ± 0.015 kg/m3 | mass density (349.99 K, 12241 kPa, x2 = 0.8): 81.3717 ± 0.021 kg/m3 | mass density (349.99 K, 12243 kPa, x2 = 0.8): 81.3884 ± 0.021 kg/m3
